Experimental findings from ChEMBL document CHEMBL1165891, “Synthesis and evaluation of novel chromone analogs for their inhibitory activity against interleukin-5” (Eur J Med Chem, 2010) are described below.

The term inhibition denotes the share of the control response that was lost under treatment. In general, IC50 refers to the concentration at which inhibition is half-maximal.

Experiment [1] can be described thus: Antiinflammatory activity against mouse Y16 cells assessed as inhibition of IL5 production at 30 uM. Format: functional.
The nature of experiment [2]: Antiinflammatory activity against mouse Y16 cells assessed as inhibition of IL5 production. The experiment is classed as functional, cell-based.
A short description of experiment [3]: Antiinflammatory activity against mouse Y16 cells assessed as inhibition of IL5 production at 50 uM. The experiment is classed as functional.

SMILES strings stand for the structures.

For `O=c1c(Cc2ccccc2)coc2cccc(OCC3CCCCC3)c12`, the inhibition at 30 µM in experiment [1] is 56%. For the same molecule, the 50% inhibitory concentration (IC50) in experiment [2] came out at 22.9 µM.

Turning to `O=c1c(Cc2ccc(O)cc2)coc2cccc(OCC3CCCCC3)c12`, the inhibition at 30 µM in experiment [1] was 98%. In addition, the IC50 in experiment [2] is less than 3 µM.

`O=c1c(CO)coc2cccc(OCC3CCCCC3)c12`: in experiment [1], the inhibition at 30 µM amounted to 84%. Also, the IC50 in experiment [2] was found to be 7.6 µM.

`CC(C)COc1cccc2occ(CO)c(=O)c12`: the inhibition at 30 µM in experiment [1] worked out at 56%. Further, in experiment [2], the IC50 worked out at 21.6 µM.

`CCc1ccc(Cc2coc3cccc(OCC4CCCCC4)c3c2=O)cc1`: the inhibition at 30 µM in experiment [1] came out at 45%. Further, in experiment [2], the half-maximal inhibitory concentration (IC50) was more than 30 µM.

For `O=c1c(Cc2ccc(Cl)cc2)coc2cccc(OCC3CCCCC3)c12`, in experiment [1], the inhibition at 30 µM came to 36%. The IC50 in experiment [2] was more than 30 µM.

For `O=c1c(Cc2ccc(C(F)(F)F)cc2)coc2cccc(OCC3CCCCC3)c12`, in experiment [1], the inhibition at 30 µM is 47%. Further, the IC50 in experiment [2] was more than 30 µM.

Turning to `Cc1ccc(Cc2coc3cccc(OCCC(C)C)c3c2=O)cc1`, the inhibition at 30 µM in experiment [1] was 35%. Moreover, the 50% inhibitory concentration (IC50) in experiment [2] is more than 30 µM.

On to `O=C(O)c1coc2cccc(OCC3CCCCC3)c2c1=O`, for which, in experiment [1], the inhibition at 30 µM turned out to be 43%. Further, the 50% inhibitory concentration (IC50) in experiment [2] was more than 30 µM.

`CC(C)COc1cccc2occ(CCC(=O)O)c(=O)c12`: in experiment [1], the inhibition at 30 µM was less than 10%. In addition, the IC50 in experiment [2] is more than 30 µM.

Turning to `O=c1c(/C=N/O)coc2cccc(OCC3CCCCC3)c12`, the inhibition at 30 µM in experiment [1] is less than 10%. Moreover, the IC50 in experiment [2] is more than 30 µM.

For `O=c1c(CCl)coc2cccc(OCC3CCCCC3)c12`, the inhibition at 30 µM in experiment [1] was 45%. Further, the IC50 in experiment [2] is more than 30 µM.

Turning to `CC(C)COc1cccc2occ(CCl)c(=O)c12`, the inhibition at 30 µM in experiment [1] worked out at 43%. Besides, the IC50 in experiment [2] is more than 30 µM.

Regarding `NS(=O)(=O)c1ccc(Cc2coc3cccc(OCC4CCCCC4)c3c2=O)cc1`, the inhibition at 30 µM in experiment [1] was determined as 31%. The 50% inhibitory concentration (IC50) in experiment [2] was more than 30 µM.

`O=C(O)c1ccc(Cc2coc3cccc(OCC4CCCCC4)c3c2=O)cc1`: the inhibition at 30 µM in experiment [1] turned out to be 77%. Further, the 50% inhibitory concentration (IC50) in experiment [2] was found to be 12.3 µM.

Turning to `Cc1ccc(Cc2coc3cccc(OCC4CCCCC4)c3c2=O)cc1`, the inhibition at 30 µM in experiment [1] was 86%. Further, the 50% inhibitory concentration (IC50) in experiment [2] worked out at 14.8 µM.

Regarding `CC(C)COc1cccc2occ(C(=O)O)c(=O)c12`, the inhibition at 30 µM in experiment [1] amounted to 33%. In addition, the IC50 in experiment [2] was more than 30 µM.

For the molecule `CC(C)COc1cccc2occ(Cc3ccc(C(=O)O)cc3)c(=O)c12`, the inhibition at 30 µM in experiment [1] is 73%. The half-maximal inhibitory concentration (IC50) in experiment [2] stood at 11.4 µM.

As to `O=C(O)CCc1coc2cccc(OCC3CCCCC3)c2c1=O`, the inhibition at 30 µM in experiment [1] was less than 10%. For the same molecule, the IC50 in experiment [2] was more than 30 µM.

As for `CC(C)COc1cccc2occ(/C=N/O)c(=O)c12`, the inhibition at 30 µM in experiment [1] was less than 10%. In experiment [2], the concentration for half-maximal inhibition (IC50) was more than 30 µM.

Take `CC(C)CCOc1cccc2occ(Cc3ccc(O)cc3)c(=O)c12`: the inhibition at 30 µM in experiment [1] amounted to 36%. Moreover, the IC50 in experiment [2] is more than 30 µM.

Turning to `COc1cc(Cc2coc3cccc(OCC4CCCCC4)c3c2=O)cc(OC)c1OC`, the inhibition at 30 µM in experiment [1] worked out at 85%. Besides, the IC50 in experiment [2] amounted to 12.5 µM.

Consider `O=c1c(-c2ccc(O[C@@H]3O[C@H](CO)[C@@H](O)[C@H](O)[C@H]3O)cc2)coc2cc(O)cc(O)c12` [SOPHORICOSIDE], for which the inhibition at 50 µM in experiment [3] was determined as 93.8%. In addition, the IC50 in experiment [2] was found to be 10.3 µM.
